# US20030187048A1, “Method for inhibiting skin lesion formation using histamine as the active ingredient” (priority 1991, published 2003)
# Read-outs that look alike come from different tables or passages of the source.
# Columns and labels:
# [1] = system: aphthous ulcers (canker sores); details: 0.0067% IEP gel; aphthous stomatitis
# Experimental: (§1) The composition of the present invention includes initial preparation of a gel base by adding 0.8% CARBOPOL 940, which is a vinyl polymer, to distilled water. This mixture was allowed to stand for several hours until the polymer was wetted and a gel was formed. This mixture then was blended by means of a ordinary high speed mixer, such as a Lightning Labmaster II until a homogenous mixture is formed. At this point, a neutralizing and emulsifying agent such as an amino alcohol was added, forming an emulsion. […] This composition then was applied topically to various types of lesions, as subsequently described. […] Propylparaben or methylparaben may be used as a preservative. For “unidose” dispensers containing only two to three drops, no preservatives are used, as it is known that preservatives in ophthalmic solutions frequently cause undesirable side effects. The term semi-synthetic water soluble polymer as used herein includes hydroxy methylcellulose or carboxy methylcellulose. Carbopol is widely available in different viscosities.
# [2] = system: herpetic stomatitis lesions (fever blisters or cold sores)
# Experimental: as §1
# [3] = system: herpes zoster (shingles) lesions; details: for Burning score / Local pain score: […] IEP gel, scale 0 to 5
# Experimental: The percent reduction in complete healing time as compared to a usual episode was evaluated comparing the two patients who received active gel concentrations to the two patients receiving placebo gel. […] Subjects were assigned randomly to one of two active ingredient levels being evaluated, 0.0% and 0.015% by weight of active ingredient.
# Each patient was contacted weekly for his or her estimate of the symptomatic relief of 2 common symptoms associated with herpes zoster (shingles) as well as the patient's interpretation of total healing of the episode. In an attempt to quantify responses, patients were asked to rate each symptom on a scale of 0 to 5 with 0 representing no evidence of the symptom and 5 representing the worst or most prominent evidence of the symptom ever for the patient. Subject compliance with the study regimen and the use of other medications was also assessed.
# [4] = system: cold sore (herpes labialis) lesions
# [5] = 0.0067% IEP gel, herpes labialis
compound,measurement,setting,value
"NCCc1c[nH]cn1 [IEP, 1H-imidazole-4-ethanamine,phosphate]","Burning, reduction after 1 app.",[1],20%
same,"Burning, reduction after 1 day",[1],40%
same,Estimated number of applications needed to eliminate clinical symptoms,[1],9
same,"Pain, reduction after 1 app.",[1],73%
same,"Pain, reduction after 1 day",[1],80%
same,Percentage decrease in healing time compared to untreated episode,[1],67%
same,Percentage of patients who experienced lesion abortion,[1],67%
same,"Size, reduction after 1 app.",[1],23%
same,"Size, reduction after 1 day",[1],43%
same,"Swelling, reduction after 1 app.",[1],20%
same,"Swelling, reduction after 1 day",[1],50%
same,"Burning, reduction after 1 app.",[2]; [5],63%
same,"Burning, reduction after 1 day",[2]; [5],92%
same,Estimated number of applications needed to eliminate clinical symptoms,[2]; [5],5
same,"Itching, reduction after 1 app.",[2]; [5],%60
same,"Itching, reduction after 1 day",[2]; [5],97%
same,"Pain, reduction after 1 app.",[2]; [5],58%
same,"Pain, reduction after 1 day",[2]; [5],87%
same,Percentage decrease in healing time compared to untreated episode,[2]; [5],49%
same,Percentage of patients who experienced lesion abortion,[2]; [5],60%
same,"Size, reduction after 1 app.",[2]; [5],10%
same,"Size, reduction after 1 day",[2]; [5],32%
same,"Spreading, reduction after 1 app.",[2]; [5],40%
same,"Spreading, reduction after 1 day",[2]; [5],62%
same,"Swelling, reduction after 1 app.",[2]; [5],%27
same,"Swelling, reduction after 1 day",[2]; [5],72%
same,Fraction of total patients who experienced the abortion of lesions,"[2]; 0.0067% gel applied at first sensation, both treatment groups (herpes labialis and aphthous ulcers)",Approximately two-thirds
same,Burning score,[3]; week 2,3
same,Local pain score,[3]; week 2,2
same,Burning score,[3]; week 3,0
same,Local pain score,[3]; week 3,0
same,Burning score,[3]; week 4,0
same,Local pain score,[3]; week 4,0
same,Burning score,[3]; week 5,0
same,Local pain score,[3]; week 5,0
same,Difference in percent reduction in complete healing time vs placebo,"[3]; […] gel, p<0.05",significant
same,Untoward reactions,"[3]; topical gel […], three times a day",no untoward reactions
same,"Mean percentage decay rate of lesions, Conc. Mean","[4]; 0.00083% gel, 4 patients",23.1%
same,Average % reduction in lesions from original size,"[4]; 0.00083% gel, 48 Hours",14.0%
same,Average % reduction in lesions from original size,"[4]; 0.00083% gel, 72 Hours",27.6%
same,Average % reduction in lesions from original size,"[4]; 0.00083% gel, 96 Hours",44.3%
same,"Burning, average percent reduction of original symptom","[4]; 0.00083% gel, Day 1",20.9%
same,"Itching, average percent reduction of original symptom","[4]; 0.00083% gel, Day 1",41.7%
same,"Pain, average percent reduction of original symptom","[4]; 0.00083% gel, Day 1",34.2%
same,"Spreading, average percent reduction of original symptom","[4]; 0.00083% gel, Day 1",0%
same,"Swelling, average percent reduction of original symptom","[4]; 0.00083% gel, Day 1",10.4%
same,"Burning, average percent reduction of original symptom","[4]; 0.00083% gel, Day 2",66.7%
same,"Itching, average percent reduction of original symptom","[4]; 0.00083% gel, Day 2",47.8%
same,"Pain, average percent reduction of original symptom","[4]; 0.00083% gel, Day 2",51.7%
same,"Spreading, average percent reduction of original symptom","[4]; 0.00083% gel, Day 2",0%
same,"Swelling, average percent reduction of original symptom","[4]; 0.00083% gel, Day 2",37.5%
same,"Burning, average percent reduction of original symptom","[4]; 0.00083% gel, Day 3",58.3%
same,"Itching, average percent reduction of original symptom","[4]; 0.00083% gel, Day 3",16.7%
same,"Pain, average percent reduction of original symptom","[4]; 0.00083% gel, Day 3",51.7%
same,"Spreading, average percent reduction of original symptom","[4]; 0.00083% gel, Day 3",11.1%
same,"Burning, average percent reduction of original symptom","[4]; 0.00083% gel, Day 4",75.0%
same,"Itching, average percent reduction of original symptom","[4]; 0.00083% gel, Day 4",11.1%
same,"Pain, average percent reduction of original symptom","[4]; 0.00083% gel, Day 4",65.0%
same,"Spreading, average percent reduction of original symptom","[4]; 0.00083% gel, Day 4",22.2%
same,"Swelling, average percent reduction of original symptom","[4]; 0.00083% gel, Day 4",75.0%
same,"Burning, average percent reduction of original symptom","[4]; 0.00083% gel, Day 5",77.8%
same,"Itching, average percent reduction of original symptom","[4]; 0.00083% gel, Day 5",41.7%
same,"Pain, average percent reduction of original symptom","[4]; 0.00083% gel, Day 5",64.4%
same,"Spreading, average percent reduction of original symptom","[4]; 0.00083% gel, Day 5",50.0%
same,"Swelling, average percent reduction of original symptom","[4]; 0.00083% gel, Day 5",55.6%
same,"Burning, average percent reduction of original symptom","[4]; 0.00083% gel, Day 6",66.7%
same,"Itching, average percent reduction of original symptom","[4]; 0.00083% gel, Day 6",75.0%
same,"Pain, average percent reduction of original symptom","[4]; 0.00083% gel, Day 6",66.7%
same,"Spreading, average percent reduction of original symptom","[4]; 0.00083% gel, Day 6",66.7%
same,"Swelling, average percent reduction of original symptom","[4]; 0.00083% gel, Day 6",0%
same,"Mean percentage decay rate of lesions, Conc. Mean","[4]; 0.0033% gel, 5 patients",24.1%
same,Average % reduction in lesions from original size,"[4]; 0.0033% gel, 24 Hours",11.8%
same,Average % reduction in lesions from original size,"[4]; 0.0033% gel, 48 Hours",44.6%
same,Average % reduction in lesions from original size,"[4]; 0.0033% gel, 72 Hours",57.8%
same,Average % reduction in lesions from original size,"[4]; 0.0033% gel, 96 Hours",61.6%
same,"Burning, average percent reduction of original symptom","[4]; 0.0033% gel, Day 1",21.7%
same,"Itching, average percent reduction of original symptom","[4]; 0.0033% gel, Day 1",23.4%
same,"Spreading, average percent reduction of original symptom","[4]; 0.0033% gel, Day 1",50.0%
same,"Burning, average percent reduction of original symptom","[4]; 0.0033% gel, Day 2",37.5%
same,"Itching, average percent reduction of original symptom","[4]; 0.0033% gel, Day 2",55.0%
same,"Spreading, average percent reduction of original symptom","[4]; 0.0033% gel, Day 2",50.0%
same,"Swelling, average percent reduction of original symptom","[4]; 0.0033% gel, Day 2",45.4%
same,"Burning, average percent reduction of original symptom","[4]; 0.0033% gel, Day 3",62.5%
same,"Itching, average percent reduction of original symptom","[4]; 0.0033% gel, Day 3",58.5%
same,"Pain, average percent reduction of original symptom","[4]; 0.0033% gel, Day 3",33.3%
same,"Spreading, average percent reduction of original symptom","[4]; 0.0033% gel, Day 3",16.7%
same,"Swelling, average percent reduction of original symptom","[4]; 0.0033% gel, Day 3",55.8%
same,"Burning, average percent reduction of original symptom","[4]; 0.0033% gel, Day 4",68.8%
same,"Itching, average percent reduction of original symptom","[4]; 0.0033% gel, Day 4",75.0%
same,"Pain, average percent reduction of original symptom","[4]; 0.0033% gel, Day 4",66.8%
same,"Spreading, average percent reduction of original symptom","[4]; 0.0033% gel, Day 4",100%
same,"Swelling, average percent reduction of original symptom","[4]; 0.0033% gel, Day 4",55.9%
same,"Burning, average percent reduction of original symptom","[4]; 0.0033% gel, Day 5",100%
same,"Itching, average percent reduction of original symptom","[4]; 0.0033% gel, Day 5",82.5%
same,"Pain, average percent reduction of original symptom","[4]; 0.0033% gel, Day 5",66.7%
same,"Spreading, average percent reduction of original symptom","[4]; 0.0033% gel, Day 5",100%
same,"Swelling, average percent reduction of original symptom","[4]; 0.0033% gel, Day 5",65.0%
same,"Burning, average percent reduction of original symptom","[4]; 0.0033% gel, Day 6",87.5%
same,"Itching, average percent reduction of original symptom","[4]; 0.0033% gel, Day 6",100%
same,"Pain, average percent reduction of original symptom","[4]; 0.0033% gel, Day 6",83.4%
same,"Swelling, average percent reduction of original symptom","[4]; 0.0033% gel, Day 6",66.7%
same,"Mean percentage decay rate of lesions, Conc. Mean","[4]; 0.0067% gel, 4 patients",54.4%
same,Average % reduction in lesions from original size,"[4]; 0.0067% gel, 24 Hours",37.5%
same,Average % reduction in lesions from original size,"[4]; 0.0067% gel, 48 Hours",67.0%
same,Average % reduction in lesions from original size,"[4]; 0.0067% gel, 72 Hours",86.2%
same,Average % reduction in lesions from original size,"[4]; 0.0067% gel, 96 Hours",98.9%
same,"Burning, average percent reduction of original symptom","[4]; 0.0067% gel, Day 1",50.0%
same,"Itching, average percent reduction of original symptom","[4]; 0.0067% gel, Day 1",50.0%
same,"Pain, average percent reduction of original symptom","[4]; 0.0067% gel, Day 1",66.7%
same,"Spreading, average percent reduction of original symptom","[4]; 0.0067% gel, Day 1",66.7%
same,"Swelling, average percent reduction of original symptom","[4]; 0.0067% gel, Day 1",50.0%
same,"Burning, average percent reduction of original symptom","[4]; 0.0067% gel, Day 2",100%
same,"Itching, average percent reduction of original symptom","[4]; 0.0067% gel, Day 2",100%
same,"Pain, average percent reduction of original symptom","[4]; 0.0067% gel, Day 2",83.4%
same,"Spreading, average percent reduction of original symptom","[4]; 0.0067% gel, Day 2",100%
same,"Swelling, average percent reduction of original symptom","[4]; 0.0067% gel, Day 2",83.3%
same,"Burning, average percent reduction of original symptom","[4]; 0.0067% gel, Day 3",100%
same,"Itching, average percent reduction of original symptom","[4]; 0.0067% gel, Day 3",100%
same,"Pain, average percent reduction of original symptom","[4]; 0.0067% gel, Day 3",55.6%
same,"Spreading, average percent reduction of original symptom","[4]; 0.0067% gel, Day 3",100%
same,"Swelling, average percent reduction of original symptom","[4]; 0.0067% gel, Day 3",54.2%
same,"Burning, average percent reduction of original symptom","[4]; 0.0067% gel, Day 4",100%
same,"Itching, average percent reduction of original symptom","[4]; 0.0067% gel, Day 4",75.0%
same,"Pain, average percent reduction of original symptom","[4]; 0.0067% gel, Day 4",55.6%
same,"Spreading, average percent reduction of original symptom","[4]; 0.0067% gel, Day 4",100%
same,"Swelling, average percent reduction of original symptom","[4]; 0.0067% gel, Day 4",61.7%
same,"Burning, average percent reduction of original symptom","[4]; 0.0067% gel, Day 5",100%
same,"Itching, average percent reduction of original symptom","[4]; 0.0067% gel, Day 5",100%
same,"Pain, average percent reduction of original symptom","[4]; 0.0067% gel, Day 5",100%
same,"Spreading, average percent reduction of original symptom","[4]; 0.0067% gel, Day 5",100%
same,"Swelling, average percent reduction of original symptom","[4]; 0.0067% gel, Day 5",66.7%
same,"Spreading, average percent reduction of original symptom","[4]; 0.0067% gel, Day 6",100%
same,"Swelling, average percent reduction of original symptom","[4]; 0.0067% gel, Day 6",100%
same,Reducing lesion size over time vs placebo (analysis of variance),"[4]; 0.0067% treatment vs placebo, p<0.05",significantly more effective
same,Untoward reactions,[4]; in vivo,no untoward reactions
